Several values for one entry are separate records, joined by “and”; a condition that tells them apart may be missing. Equal entries are not always repeated. Where two headings read alike, the source gives them in different places.
Columns and labels:
[1] = test system: HCT-116 (colorectal carcinoma); assay: MTS growth inhibition assay, HCT-116; type: cell-based, human
Experimental: In Table 1, the various compounds listed were tested for induction of death in various malignant human cell lines and were compared to the commercial HAT inhibitor garcinol (0.2-500 μM). Specifically, Table 1 describes the summary of the growth inhibitory effect (in μM) of nine novel bisamidoximes on six malignant cell lines, as measured by MTS assay. MTS assay is a colorimetric based cytotoxicity assay that determines the number of viable cells. The numbers in the table represent Growth Inhibition GI50 (±standard deviation), which is the concentration of the drug where 50% of the cells are killed. Garcinol, a known HAT inhibitor, was used as a positive control. The cell lines used were: HCT-116 (colorectal carcinoma), DU-145 (prostate carcinoma), SK-OV-3 (ovarian adenocarcinoma), HLF-a (lung epidermoid carcinoma), MCF-7 & MDA-MB-231 (breast adenocarcinoma) and NHDF (normal human dermal fibroblasts). The cells were treated with compounds JJMB 1-9 for 48 hrs (MCF-7 for 72 hrs) at various concentrations ranging from 0.2 μM to 500 μM. One-way ANOVA was performed to assess the differences between the groups. Differences in means between control and treatment groups were analyzed by post-hoc Dunnett's test, p<0.05. Data is reported as the mean ±SD, n =3. […] The compounds tested (JJMB5, JJMB6, JJMB7, and JJMB9) could efficiently kill several malignant cell-lines in concentration range of micromolars. (See Table 1). […] From these tests it is clear that the compounds affected several cells lines of the three major types of cancers: breast, lung, and colon. […]
(§1) Combination studies of bisamidoximes and cisplatin were performed on human breast cancer cell line MCF-7, human colon cancer cell line HCT-116, and murine mammary malignant cell lines measured by MTS assay. The cells were treated with novel bisamidoximes JJMB 5, 7, and 9, for 48 hours (72 hours for MCF-7), individually or in combination with cisplatin. Growth Inhibition (GI50) was measured. *—Indicates a significant difference when the drugs were used in combination with cisplatin compared to when the drugs were used individually as determined by one-way ANOVA, p≤0.05.

[2] = test system: MCF-7 (breast adenocarcinoma); assay: MTS growth inhibition assay, MCF-7; type: cell-based, human
Experimental: (§2) In Table 1, the various compounds listed were tested for induction of death in various malignant human cell lines and were compared to the commercial HAT inhibitor garcinol (0.2-500 μM). Specifically, Table 1 describes the summary of the growth inhibitory effect (in μM) of nine novel bisamidoximes on six malignant cell lines, as measured by MTS assay. MTS assay is a colorimetric based cytotoxicity assay that determines the number of viable cells. The numbers in the table represent Growth Inhibition GI50 (±standard deviation), which is the concentration of the drug where 50% of the cells are killed. Garcinol, a known HAT inhibitor, was used as a positive control. The cell lines used were: HCT-116 (colorectal carcinoma), DU-145 (prostate carcinoma), SK-OV-3 (ovarian adenocarcinoma), HLF-a (lung epidermoid carcinoma), MCF-7 & MDA-MB-231 (breast adenocarcinoma) and NHDF (normal human dermal fibroblasts). The cells were treated with compounds JJMB 1-9 for 48 hrs (MCF-7 for 72 hrs) at various concentrations ranging from 0.2 μM to 500 μM. One-way ANOVA was performed to assess the differences between the groups. Differences in means between control and treatment groups were analyzed by post-hoc Dunnett's test, p<0.05. Data is reported as the mean ±SD, n =3. […] The compounds tested (JJMB5, JJMB6, JJMB7, and JJMB9) could efficiently kill several malignant cell-lines in concentration range of micromolars. (See Table 1). […] From these tests it is clear that the compounds affected several cells lines of the three major types of cancers: breast, lung, and colon.
as §1, with “studies” for “studies of bisamidoximes and cisplatin were”, “MCF-7 and” for “MCF-7,”, “HCT 116 were” for “HCT-116, and murine mammary malignant cell lines”, “combination.” for “combination with cisplatin.”, “combination” for “combination with cisplatin”
as §1

[3] = test system: HLF-a (lung epidermoid carcinoma); assay: MTS growth inhibition assay, HLF-a; type: cell-based; conditions: Homo sapiens, 48 hrs, 0.2-500 μM, mean ±SD n=3, read-out: Growth Inhibition GI50 (±standard deviation), Lung (HLF-A)
Experimental: as §2

[4] = test system: MDA-MB-231 (breast adenocarcinoma); assay: MTS growth inhibition assay, MDA-MB-231; type: cell-based; conditions: Homo sapiens, 48 hrs, 0.2-500 μM, mean ±SD n=3, read-out: Growth Inhibition GI50 (±standard deviation), Breast (MDA-MB-231)
Experimental: as §2

[5] = test system: DU-145 (prostate carcinoma); assay: MTS growth inhibition assay, DU-145; type: cell-based; conditions: Homo sapiens, 48 hrs, 0.2-500 μM, mean ±SD n=3, read-out: Growth Inhibition GI50 (±standard deviation), Prostate (DU-145)
Experimental: as §2

[6] = test system: SK-OV-3 (ovarian adenocarcinoma); assay: MTS growth inhibition assay, SK-OV-3; type: cell-based; conditions: Homo sapiens, 48 hrs, 0.2-500 μM, mean ±SD n=3, read-out: Growth Inhibition GI50 (±standard deviation), Ovarian (SKOV-3)
Experimental: as §2

[7] = MTS growth inhibition assay, NHDF; type: cell-based; conditions: NHDF (normal human dermal fibroblasts), 0.2-500 μM, read-out: Growth Inhibition GI50 (±standard deviation), Normal (NHDF)
Experimental: as §2

[8] = test system: murine mammary carcinoma cells 4T1; assay: Growth inhibition of murine mammary cancer cell line 4T1; type: cell-based; conditions: Mus musculus; 4T1 cells, single drugs; read-out: growth inhibition 50% (GI50) on 4T1 cells
[9] = test system: EpH4 cells; assay: Sensitivity of EpH4 cells to bisamidoximes; type: cell-based; conditions: in vitro cell culture
Experimental: The efficacy of killing malignant cells in mice and slowing down the tumors or eradicating them can be indicative to these compounds' efficacy in humans. To check if the bisamidoximes are potent in mice, breast cancer cells were identified that could be implanted in female mice mammary fat pads. The identified cells were tested to see if they are sensitive to bisamidoximes in vitro (in tube/cell culture).
(§3) At the next stage, we needed to determine whether the mice would tolerate the drugs, or in other words, what would be the maximum tolerated dose (MTD) of each of the bisamidoximes. The three bisamidoximes JJMB5, JJMB7, and JJMB9, as well as a control group of only the vehicle (the solvent used to dissolve the drugs) were injected intraperitoneally (IP) to mice. The protocol included injection of the desired concentration of bisamidoxime over 5 consecutive days, two days of break, and another cycle of 5 successive days of injections.

[10] = Maximum tolerated dose in mice, IP; conditions: mouse, in vivo, BALB/c strain, 5 consecutive days, two days break, another 5 days
Experimental: as §3

[11] = test system: TSA-induced hyperacetylation; assay: Reversion of HDAC-inhibitor (TSA)-induced hyperacetylation; type: cell-based, human; conditions: HCT-116, listed as JJM6
Experimental: To further understand the mechanism of action of the four active compounds (JJMB5, JJMB6, JJMB7, and JJMB9), we performed several experiments that are summarized in Table 2. All the assays were performed on HCT-116 (a colorectal carcinoma), since all of the four specific potent drugs could induce death of these cells. […] Another HAT, GCN5, was not inhibited by any of the compounds. JJMB5, JJM6 and JJMB9 could reverse the activity of an HDAC inhibitor (TSA); thus the hyperacetylation induced by TSA could be reversed by these compounds.
This is another indication that the three compounds, JJMB5, JJMB6, and JJMB9 are HAT inhibitors.

[12] = test system: 4T1 breast carcinoma cells implanted in mammary fat pad; assay: 4T1 mammary carcinoma tumor volume in BALB/c mice; type: in vivo, mouse; conditions: 4T1 in mammary fat pad, two 5-day cycles
Experimental: The bisamidoxime JJMB7 was studied to see if the compound can lower the rate of tumor growth and the number and size of metastases in mice. […] FIG. 2 depicts a graph of mammary tumor volumes in JJMB7 treated and untreated control BALB/c mice. In the experiment, six-week-old BALB/c mice were implanted with 10,000 4T1 breast carcinoma cells in the mammary fat pad (MFP). […] JJMB7 was administered for five consecutive days, followed by a two day break, and another five consecutive days of injections. Mice were weighed every day and observed for signs of pain and discomfort. Tumors were visible 7 days after implantation, and tumor dimensions were measured, and volumes were calculated until day-24, when mice were euthanized. A One-Way Repeated Measures ANOVA was performed to determine a statistical significance (p≤0.05).
The murine mammary carcinoma 4T1 cells were implanted in the mammary fat pad of BALB/c female mice (10,000 cells per mice) and a day later we started a protocol of two 5-day cycles (with 2 days break) of chemotherapy delivered IP. The amidoximes were delivered at their MTD level—JJMB5 with 0.26 mg/kg, and JJMB9 with 0.78 mg/kg. One-Way Repeated-Measure ANNOVA was performed to show the significance (p≤0.05, n=10).

[13] = Mouse Liver Microsomes stability; type: in vitro ADME; conditions: Mouse Liver Microsomes (FIG. 5); read-out: t1/2 in Mouse Liver Microsomes
[14] = 48 hours, individually or in combination with cisplatin, read-out: Growth Inhibition (GI50), HCT-116, cisplatin combination study
[15] = Homo sapiens, HCT-116, 48 hrs, 0.2-500 μM, mean ±SD n=3, * = highly purified, more potent batches, read-out: Growth Inhibition GI50 (±standard deviation), Colon (HCT-116)
[16] = Homo sapiens, MCF7, 72 hours, 0.2-500 μM, mean ±SD n=3, * = highly purified, more potent batches, read-out: Growth Inhibition GI50 (±standard deviation), Breast (MCF-7), 72 hours
[17] = Homo sapiens, MCF7, 72 hours, individually or in combination with cisplatin, read-out: Growth Inhibition (GI50), MCF-7, cisplatin combination study
[18] = Homo sapiens, MCF7, 72 hours, individually or in combination, read-out: Growth Inhibition (GI50), MCF-7, bisamidoxime combination study

| Structure (SMILES) | GI50 [1, 14] | GI50 ([2]; 72 hours, individually or in combination with cisplatin, read-out: Growth Inhibition (GI50), MCF-7, cisplatin combination study) | GI50 [1, 15] | GI50 [3] | GI50 [2, 16] | GI50 [4] | GI50 [5] | GI50 [6] | GI50 at 48 h [7] | GI50 [2, 17] | GI50 [2, 18] | GI50 [8] | sensitivity of EpH4 cells to bisamidoximes [9] | MTD [10] | Reversion of HDAC-inhibitor-induced hyperacetylation [11] | mammary carcinoma tumor volume (FIG. 2) ([12]; BALB/c mice, 1.56 mg/kg IP, until day-24) | breast cancer tumor volume (FIG. 3) ([12]; BALB/c female mice, 0.78 mg/kg IP, p≤0.05, n=10) | half-life [13] |
| --- | --- | --- | --- | --- | --- | --- | --- | --- | --- | --- | --- | --- | --- | --- | --- | --- | --- | --- |
| N.N.[Cl][Pt][Cl] [Cisplatin, cisplatin, reference compound] | 68.6 µM and 73 µM and 66.3 µM | 40.8 µM and 48.5 µM | – | – | – | – | – | – | – | – | – | – | – | – | – | – | – | – |
| C=C(C)[C@@H](CC=C(C)C)C[C@@]12C[C@@H](CC=C(C)C)C(C)(C)[C@@](CC=C(C)C)(C(=O)C(C(=O)c3ccc(O)c(O)c3)=C1O)C2=O [Garcinol, garcinol, reference compound] | – | – | 39 ± 8 µM | 27 ± 4 µM | 55 ± 7 µM | 44 ± 4 µM | 55 ± 7 µM | 43 ± 5 µM | > 500 µM | – | – | – | – | – | – | – | – | – |
| Cc1ccc(/C(=N/O)NCCCN/C(=N\O)c2ccc(C)cc2)cc1 [JJMB5] | 19.3 ± 2.4 µM | – | 8.5 µM | 335 ± 4 µM | 33.2 µM | 125 ± 4 µM | > 500 µM | > 500 µM | > 500 µM | 33.2 ± 6 µM | 28.2 ± 7.1 µM | 6.3 ± 2.3 µM | highly sensitive | 0.26 mg/kg | – | – | – | – |
| Cc1ccc(/C(=N/O)NCCCCN/C(=N\O)c2ccc(C)cc2)cc1 [JJMB6] | – | – | 17 ± 4 µM | > 500 µM | > 500 µM | > 500 µM | > 500 µM | > 500 µM | > 500 µM | – | – | – | – | – | could reverse | – | – | – |
| Cc1ccc(/C(=N/O)NCCN/C(=N\O)c2ccc(C)cc2)cc1 [JJMB7] | 16.2 ± 2 µM | – | 6.2 µM | 275 ± 3 µM | > 500 µM | 85 ± 3 µM | > 500 µM | > 500 µM | > 500 µM | – | – | 14.7 ± 6.3 µM | highly sensitive | 1.56 mg/kg | – | significantly reduce | – | – |
| Cc1ccc(/C(=N/O)NCCCN(C)CCCN/C(=N\O)c2ccc(C)cc2)cc1 [JJMB9] | – | – | 16 µM | 40 ± 7 µM | 8.5 µM | > 500 µM | > 500 µM | > 500 µM | > 500 µM | 8.5 ± 2.5 µM | 5.3 ± 2.7 µM | 33.3 ± 2.4 µM | highly sensitive | 0.78 mg/kg | – | – | significantly reduced | 13 min |
